Measurements reported in the supplement of paper PMC10307832.

Tests used:
Experiment in all cases: relative viability (nuclei count vs DMSO), 5 days (fraction); higher = more cells survive
NCI-H2087 = tested on: NCI-H2087
How it was run: (§1)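 Relative viability divides the nuclei count in treated wells by that in vehicle wells. Lung cancer cell lines were seeded in 1536-well plates, dosed by pin tool the next day, and fixed and stained after 5 days in one step with final 0.05% Triton X-100, 1% formaldehyde and 1 ug/ml Hoechst. Dosing was a single drug or a fixed anchor-drug dose plus five library-drug doses (not always all listed) in √10 steps, and values are medians of duplicate plates imaged at 4×.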

BEN = tested on: BEN
How it was run: as §1

H3255 = tested on: H3255
How it was run: as §1

EPLC-272H = tested on: EPLC-272H
How it was run: as §1

HCC-827 = tested on: HCC-827
How it was run: as §1

NCI-H1666 = tested on: NCI-H1666
How it was run: as §1

LU99A = tested on: LU99A
How it was run: as §1

NCI-H647 = tested on: NCI-H647
How it was run: as §1

PC-3 [JPC-3] = tested on: PC-3 [JPC-3]
How it was run: as §1

NCI-H2342 = tested on: NCI-H2342
How it was run: as §1

LCLC-97TM1 = tested on: LCLC-97TM1
How it was run: as §1

For `Cc1sc2c(c1C)C(c1ccc(Cl)cc1)=N[C@@H](CC(=O)OC(C)(C)C)c1nnc(C)n1-2` [JQ1] + N=C(N)NC(=N)NCCc1ccccc1 [Phenformin] (partner 250 µM), the relative viability (NCI-H2087; first compound 0.04 µM) was 0.52, the relative viability (NCI-H2087; first compound 0.1265 µM) was 0.406 and the relative viability (NCI-H2087; first compound 0.4 µM) was 0.406. It also gave a relative viability (NCI-H2087; first compound 1.265 µM) of 0.266, a relative viability (NCI-H2087; first compound 4 µM) of 0.273 and a relative viability (BEN; first compound 0.04 µM) of 0.273. The relative viability (BEN; first compound 0.1265 µM) was 0.296, the relative viability (BEN; first compound 0.4 µM) was 0.303 and the relative viability (BEN; first compound 1.265 µM) was 0.309. For the same compound, the relative viability (BEN; first compound 4 µM) was 0.215, the relative viability (H3255; first compound 0.04 µM) was 0.349 and the relative viability (H3255; first compound 0.1265 µM) was 0.348. The relative viability (H3255; first compound 0.4 µM) was 0.35, the relative viability (H3255; first compound 1.265 µM) was 0.36 and the relative viability (H3255; first compound 4 µM) was 0.36. The relative viability (EPLC-272H; first compound 0.04 µM) was 0.33, the relative viability (EPLC-272H; first compound 0.1265 µM) was 0.262 and the relative viability (EPLC-272H; first compound 0.4 µM) was 0.249. For the same compound, the relative viability (EPLC-272H; first compound 1.265 µM) was 0.294, the relative viability (EPLC-272H; first compound 4 µM) was 0.188 and the relative viability (HCC-827; first compound 0.04 µM) was 0.395. The relative viability (HCC-827; first compound 0.4 µM) was 0.349, the relative viability (HCC-827; first compound 1.265 µM) was 0.468 and the relative viability (HCC-827; first compound 4 µM) was 0.449. For the same compound, the relative viability (NCI-H1666; first compound 0.04 µM) was 0.572, the relative viability (NCI-H1666; first compound 0.1265 µM) was 0.596 and the relative viability (NCI-H1666; first compound 0.4 µM) was 0.501. The relative viability (NCI-H1666; first compound 1.265 µM) was 0.516, the relative viability (NCI-H1666; first compound 4 µM) was 0.486 and the relative viability (LU99A; first compound 0.04 µM) was 0.776. It also gave a relative viability (LU99A; first compound 0.1265 µM) of 0.35, a relative viability (LU99A; first compound 0.4 µM) of 0.734 and a relative viability (LU99A; first compound 1.265 µM) of 0.303. It also gave a relative viability (LU99A; first compound 4 µM) of 0.26, a relative viability (NCI-H647; first compound 0.04 µM) of 0.433 and a relative viability (NCI-H647; first compound 0.1265 µM) of 0.306. For the same compound, the relative viability (NCI-H647; first compound 0.4 µM) was 0.229, the relative viability (NCI-H647; first compound 1.265 µM) was 0.0637 and the relative viability (NCI-H647; first compound 4 µM) was 0.0562. It also gave a relative viability (PC-3 [JPC-3]; first compound 0.04 µM) of 0.466, a relative viability (PC-3 [JPC-3]; first compound 0.1265 µM) of 0.474 and a relative viability (PC-3 [JPC-3]; first compound 0.4 µM) of 0.46. The relative viability (PC-3 [JPC-3]; first compound 1.265 µM) was 0.461, the relative viability (PC-3 [JPC-3]; first compound 4 µM) was 0.376 and the relative viability (NCI-H2342; first compound 0.04 µM) was 0.604. It also gave a relative viability (NCI-H2342; first compound 0.1265 µM) of 0.57, a relative viability (NCI-H2342; first compound 0.4 µM) of 0.694 and a relative viability (NCI-H2342; first compound 1.265 µM) of 0.809. It also gave a relative viability (NCI-H2342; first compound 4 µM) of 0.663, a relative viability (LCLC-97TM1; first compound 0.04 µM) of 0.423 and a relative viability (LCLC-97TM1; first compound 0.1265 µM) of 0.42. It also gave a relative viability (LCLC-97TM1; first compound 0.4 µM) of 0.446, a relative viability (LCLC-97TM1; first compound 1.265 µM) of 0.328 and a relative viability (LCLC-97TM1; first compound 4 µM) of 0.203.
